# Several values for one entry are separate records, joined by “and”; a condition that tells them apart may be missing. Identical values can stand only once. Like-named read-outs stand apart in the source and are kept apart here.
# Assays:
# [1] = Metabolic stability and enzyme kinetics in liver S9 (conversion to PF-00835231); details: for microsomal CLint / Km at 20 min: rat
# [2] = Rat 24-h continuous intravenous infusion GLP toxicity study; assay type: in vivo, Sprague-Dawley rats; details: in vivo
# [3] = Metabolic stability and enzyme kinetics in liver S9 (conversion to PF-00835231); details: for PF-00835231 formation rate: Human Liver S9 0.03 mg/ml, 20 min, R1-R3; for Km at 20 min / microsomal CLint: human
# [4] = as above
# [5] = Liver S9 binding by equilibrium dialysis; details: for recovery at 6 h: human liver S9, %Recovery
# PEDV 3CL^pro = PEDV 3CL^pro (Porcine epidemic diarrhea virus, UniProt P0C6Y4); assay type: biochemical
# Chain of PEDV 3CL^pro (P0C6Y4 2998-3299): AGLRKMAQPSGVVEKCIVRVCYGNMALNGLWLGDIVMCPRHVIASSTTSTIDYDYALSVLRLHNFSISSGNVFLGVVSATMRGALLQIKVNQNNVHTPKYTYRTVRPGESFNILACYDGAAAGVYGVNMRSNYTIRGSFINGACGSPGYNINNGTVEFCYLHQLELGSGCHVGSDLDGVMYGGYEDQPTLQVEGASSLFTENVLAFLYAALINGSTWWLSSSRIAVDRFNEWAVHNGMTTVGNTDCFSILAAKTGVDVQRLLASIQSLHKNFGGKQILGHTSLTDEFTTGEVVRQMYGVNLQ
# CYP3A = assay: Enzyme kinetics of metabolite formation in HLM and effect of CYP3A inhibitor ketoconazole
# [6] = 300 mg/kg dose group
# HIV-1 protease = HIV-1 protease (Human immunodeficiency virus type 1 group M subtype B, UniProt P04585); assay: Mammalian protease panel; assay type: biochemical
# Method: (§1) The respective protease in assay buffer (50 mM Tris with 100 mM sodium chloride and Brij 35 at pH = 8 except for cathepsin D pH = 3.5 and HIV pH = 5.5) was added to assay ready compound plates. The enzymatic reaction was initiated with the addition of indicated substrate in assay buffer. Initial rates were measured by following the fluorescence of the cleaved substrate (Ex/Em 355/460 […]) using a Spectramax (Molecular Devices) fluorescence plate reader in the kinetic format.
# (§2) IC50 values were generated based on a four-parameter logistic fit model using ActivityBase software (IDBS). Percent activity values were calculated based on control wells containing no compound (100% activity) and wells containing a control compound (0% activity).
# Human Elastase = Human Elastase (Homo sapiens, UniProt P08246); assay: Mammalian protease panel; assay type: biochemical
# Chain of Human Elastase (P08246 30-247 limits assumed): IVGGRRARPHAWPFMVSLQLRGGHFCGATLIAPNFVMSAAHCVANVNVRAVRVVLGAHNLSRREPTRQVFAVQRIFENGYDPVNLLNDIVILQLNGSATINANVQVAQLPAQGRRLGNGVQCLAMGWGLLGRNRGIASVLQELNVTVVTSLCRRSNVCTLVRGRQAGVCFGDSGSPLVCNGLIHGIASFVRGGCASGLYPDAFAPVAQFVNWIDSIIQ
# Method: as §1, §2
# Human Cathepsin B = Human Cathepsin B (Homo sapiens, UniProt P07858); assay: Mammalian protease panel; assay type: biochemical
# Method: as §1, §2
# Human Cathepsin D = Human Cathepsin D (Homo sapiens, UniProt P07339); assay: Mammalian protease panel; assay type: biochemical
# Chain of Human Cathepsin D (P07339 65-412): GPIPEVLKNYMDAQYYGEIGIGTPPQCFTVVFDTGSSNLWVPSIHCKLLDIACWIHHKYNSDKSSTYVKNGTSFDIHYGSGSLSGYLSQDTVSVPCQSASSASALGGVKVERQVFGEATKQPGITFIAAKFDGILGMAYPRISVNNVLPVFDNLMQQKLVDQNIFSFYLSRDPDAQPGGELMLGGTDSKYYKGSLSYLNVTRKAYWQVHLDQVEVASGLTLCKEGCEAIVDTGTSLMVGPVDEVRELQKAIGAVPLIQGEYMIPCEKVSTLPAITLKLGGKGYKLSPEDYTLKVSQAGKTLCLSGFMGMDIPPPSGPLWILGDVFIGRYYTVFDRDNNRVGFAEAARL
# SARS-CoV-2 USA-WA1/2020 = assay: Ad5-hACE2 SARS-CoV-2 mouse infection model; assay type: in vivo, BALB/c mice; details: 100 mg/kg BID from day 0; lungs day 3; individual mice
# FIPV 3CL^pro = FIPV 3CL^pro (Feline coronavirus, UniProt Q98VG9); assay type: biochemical
# Chain of FIPV 3CL^pro (Q98VG9 2904-3205): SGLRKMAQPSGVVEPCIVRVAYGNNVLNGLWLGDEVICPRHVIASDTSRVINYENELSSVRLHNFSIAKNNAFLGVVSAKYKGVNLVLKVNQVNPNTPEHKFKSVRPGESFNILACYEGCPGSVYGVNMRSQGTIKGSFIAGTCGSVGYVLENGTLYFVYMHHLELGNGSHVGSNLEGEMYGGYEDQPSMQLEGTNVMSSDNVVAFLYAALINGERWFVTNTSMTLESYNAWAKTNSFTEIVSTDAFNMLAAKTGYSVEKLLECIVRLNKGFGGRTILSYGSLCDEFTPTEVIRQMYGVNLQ
# HKU1-CoV 3CL^pro = HKU1-CoV 3CL^pro (Human coronavirus HKU1, UniProt P0C6X2); assay: biochemical
# Chain of HKU1-CoV 3CL^pro (P0C6X2 3335-3637): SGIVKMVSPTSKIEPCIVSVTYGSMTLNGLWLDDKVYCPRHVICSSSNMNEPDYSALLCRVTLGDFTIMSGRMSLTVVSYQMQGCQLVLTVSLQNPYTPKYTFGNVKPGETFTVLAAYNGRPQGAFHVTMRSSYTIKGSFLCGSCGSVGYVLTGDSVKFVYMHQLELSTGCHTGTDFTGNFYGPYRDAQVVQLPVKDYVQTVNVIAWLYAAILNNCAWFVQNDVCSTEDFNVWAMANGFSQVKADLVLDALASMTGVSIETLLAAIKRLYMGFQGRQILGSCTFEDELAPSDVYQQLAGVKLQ
# Human Chymotrypsin = assay: Mammalian protease panel; assay type: biochemical
# CYP3A4/5 = CYP3A4/5 (Homo sapiens, UniProt P08684); assay: Time-dependent inhibition of CYP enzymes in human liver microsomes; details: CYP3A4; Simcyp interaction input
# Chain of CYP3A4/5 (P08684 whole entry): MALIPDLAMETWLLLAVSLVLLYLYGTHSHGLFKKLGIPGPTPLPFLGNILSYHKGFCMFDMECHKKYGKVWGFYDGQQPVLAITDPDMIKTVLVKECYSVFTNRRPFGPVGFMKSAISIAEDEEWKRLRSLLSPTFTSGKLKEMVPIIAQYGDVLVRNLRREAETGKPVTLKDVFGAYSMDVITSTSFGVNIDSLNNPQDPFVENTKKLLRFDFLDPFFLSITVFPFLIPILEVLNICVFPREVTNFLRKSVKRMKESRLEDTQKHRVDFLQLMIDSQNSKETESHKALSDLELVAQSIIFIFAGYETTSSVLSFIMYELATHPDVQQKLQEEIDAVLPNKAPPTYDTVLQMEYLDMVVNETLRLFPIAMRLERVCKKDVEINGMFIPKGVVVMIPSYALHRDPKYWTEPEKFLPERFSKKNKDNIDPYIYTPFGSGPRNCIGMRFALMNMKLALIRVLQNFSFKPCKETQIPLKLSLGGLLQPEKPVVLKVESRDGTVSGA
# [7] = Liver microsome binding by equilibrium dialysis; details: for fraction unbound at 6 h: human, human liver microsomes, fu
# SARS-CoV-2 [8] = test system: SARS-CoV-2; design: method as in earlier work; details: preliminary data; read-out: unbound EC90; cited from earlier work
# SARS-CoV-2 [9] = details: cited from earlier work
# [10] = liver S9, pH 7.5, CLint,2, low affinity kinetic component
# [11] = liver S9, pH 7.5, CLintu (unbound CLint)
smiles,measurement,setting,value
COc1cccc2[nH]c(C(=O)N[C@@H](CC(C)C)C(=O)N[C@@H](C[C@@H]3CCNC3=O)C(=O)COP(=O)(O)O)cc12 [PF-07304814],Vmax,"[1]; Rat, best-fit, Two enzyme: MM + Unsaturable",2188 pmol/min/mg
same,microsomal CLint,"[1]; liver S9, pH 7.5, CL, unsaturable component, best-fit",4.56 µL/min/mg
same,microsomal CLint,"[1]; liver S9, pH 7.5, CLint total, Rat, (vmax / KM) + CL",45.5 µL/min/mg
same,microsomal CLint,[1]; [10],4.56 µL/min/mg
same,microsomal CLint,"[1]; liver S9, pH 7.5, CLint,app",45.5 µL/min/mg
same,microsomal CLint,[1]; [11],51 µL/min/mg
same,Km at 20 min,"[1]; rat liver S9, pH 7.5, KM",53.4 µM
same,Km at 20 min,"[1]; rat liver S9, pH 7.5, Km, Rat, best-fit, Two enzyme: MM + Unsaturable",53.4 µM
same,NOAEL at 24 h,"[2]; both sexes, Sprague-Dawley, 24 h continuous IV infusion, read-out: no observed adverse effect level (NOAEL)",1000 mg/kg
same,toxicity findings,[2],no test article related findings
same,PF-00835231 formation rate,[3]; substrate 0.207 µM,100 pmol/min/mg and 108 pmol/min/mg and 109 pmol/min/mg
same,PF-00835231 formation rate,[3]; substrate 3.81 µM,923 pmol/min/mg and 978 pmol/min/mg and 975 pmol/min/mg
same,PF-00835231 formation rate,[3]; substrate 16.3 µM,2081 pmol/min/mg and 1997 pmol/min/mg and 1964 pmol/min/mg
same,PF-00835231 formation rate,[3]; substrate 33.8 µM,2700 pmol/min/mg and 2483 pmol/min/mg and 2383 pmol/min/mg
same,PF-00835231 formation rate,[3]; substrate 70.0 µM,3450 pmol/min/mg and 3533 pmol/min/mg and 2817 pmol/min/mg
same,Vmax,"[3]; Human liver S9, best-fit, Two enzyme: MM + Unsaturable",2313 pmol/min/mg
same,Vmax,"[3]; Human, best-fit, Two enzyme: MM + Unsaturable",2313 pmol/min/mg
same,Km at 20 min,"[3]; human liver S9, pH 7.5, KM",6.23 µM
same,Km at 20 min,"[3]; human liver S9, pH 7.5, Km, Human liver S9, best-fit, Two enzyme: MM + Unsaturable",6.23 µM
same,microsomal CLint,"[3]; liver S9, pH 7.5, CLint total, Human liver S9, CLint total = (vmax / KM) + CL",381 µL/min/mg
same,microsomal CLint,"[3]; liver S9, pH 7.5, CLint total, Human, (vmax / KM) + CL",381 µL/min/mg
same,microsomal CLint,[3]; [10],9.96 µL/min/mg
same,microsomal CLint,"[3]; liver S9, pH 7.5, CLint,app",381 µL/min/mg
same,microsomal CLint,[3]; [11],428 µL/min/mg
same,microsomal CLint,"[3]; liver S9, pH 7.5, Human liver S9 Clint, clearance input",381 µL/min/mg
same,Vmax,"[4]; Cyno, best-fit, Two enzyme: MM + Unsaturable",1186 pmol/min/mg
same,microsomal CLint,"[4]; cynomolgus monkey, liver S9, pH 7.5, CL, Cyno, unsaturable component, best-fit",3.06 µL/min/mg
same,microsomal CLint,"[4]; cynomolgus monkey, liver S9, pH 7.5, CLint total, Cyno, (vmax / KM) + CL",150 µL/min/mg
same,microsomal CLint,"[4]; monkey, liver S9, pH 7.5, CLint,2, low affinity kinetic component",3.06 µL/min/mg
same,microsomal CLint,"[4]; monkey, liver S9, pH 7.5, CLint,app",150 µL/min/mg
same,microsomal CLint,"[4]; monkey, liver S9, pH 7.5, CLintu (unbound CLint)",168 µL/min/mg
same,Km at 20 min,"[4]; monkey, monkey liver S9, pH 7.5",8.1 µM
same,Hum liver S9 binding,[5]; clearance input,0.89
same,%Stability,"[5]; human liver S9 matrix, n=4",98%
same,recovery at 6 h,"[5]; human, human liver S9 binding, MEAN, n 4",94%
same,recovery at 6 h,"[5]; human, human liver S9 binding, individual replicates",95%
same,fraction unbound at 6 h,"[5]; human, human liver S9, fu MEAN, human liver S9, mean, n=4",0.89
same,fraction unbound at 6 h,"[5]; human, human liver S9, fu, human liver S9, individual replicates 1-4",0.902
same,fraction unbound at 6 h,"[5]; human, human liver S9, fu, human liver S9 binding, MEAN, n 4",0.89
same,fraction unbound at 6 h,"[5]; human, human liver S9, fu, human liver S9 binding, individual replicates",0.867
same,"fraction unbound at 6 h, 2 µM","[5]; human, liver S9, Unbound fraction fu (%CV), human liver S9, 0.03mg/mL protein, 2 µM substrate",0.89
same,"%Recovery, human liver S9 binding",[5]; individual replicates,88% and 99%
same,"fu, human liver S9 binding",[5]; individual replicates,0.888
same,"%Stability, human liver S9 binding","[5]; mean, n 4",98%
COc1cccc2[nH]c(C(=O)N[C@@H](CC(C)C)C(=O)N[C@@H](C[C@@H]3CCNC3=O)C(=O)CO)cc12 [PF-00835231],CC50,VeroE6-EGFP cells; African green monkey,> 50 µM
same,CC50,VeroE6-EGFP cells; monkey,> 50 µM
same,Ki,PEDV 3CL^pro,0.3 ± 0.11 nM
same,"fm,CYP3A",CYP3A; formation of the metabolite from PF-00835231 in HLM,0.86
same,microsomal CLint,"CYP3A; human, pooled human liver microsomes, pH 7.5",4.2 µL/min/mg
same,Cmin unbound exposure,[6],1700 nM
same,IC50,HIV-1 protease,> 11 µM
same,IC50,Human Elastase,> 33 µM
same,IC50,Human Cathepsin B,6 µM and 6.1 µM
same,IC50,Human Cathepsin D,> 11 µM
same,Lung viral titers,SARS-CoV-2 USA-WA1/2020,160 IU/mL and 240 IU/mL and 110 IU/mL and 3500 IU/mL and 1600 IU/mL and 1100 IU/mL
same,Ki,FIPV 3CL^pro,0.12 ± 0.1 nM
same,Ki,HKU1-CoV 3CL^pro,0.85 ± 0.24 nM
same,IC50,Human Chymotrypsin,> 100 µM
same,MBI Kapp,CYP3A4/5,163.000 µM
same,"fu, human liver microsomal binding","[7]; Microsomal protein 0.806mg/ml, individual replicates",0.70 and 0.77
same,HLM microsomal binding,[7]; clearance input,0.75
same,fraction unbound at 6 h,"[7]; human liver microsomal binding, Geomean, Microsomal protein 0.806mg/ml",0.75
same,fraction unbound at 6 h,"[7]; human liver microsomal binding, Microsomal protein 0.806mg/ml, individual replicates",0.84
same,fraction unbound at 6 h,"[7]; microsomal protein 0.806mg/ml, individual replicates n=1-4",0.7
same,EC90,SARS-CoV-2 [8],< 500 nM
same,EC50,SARS-CoV-2 [9]; P-gp inhibitor 0 uM,193 nM
same,EC50,SARS-CoV-2 [9]; P-gp inhibitor 1 uM,178 nM
same,EC90,SARS-CoV-2 [9]; human lung carcinoma cells,440 nM
